Assay [1] has as its system benzodiazepine binding site of GABAARs. The experiment in a line: α-methyl 5-HT-induced itch in HRRR mice (α2, α3, α5 GABAARs benzodiazepine-insensitive). The format is in vivo. The note with it: 1 mg/kg p.o.; 20 μg α-methyl 5-HT. The method, then:
(§1) Acute itch was assessed in mice that received intradermal microinjections of pruritogens or 0.9% saline into the right cheek, which had been shaved at least one day before the experiment. In two sets of experiments that addressed the contribution of GABAARs in primary and secondary pruritoceptors, pruritogens were injected in the right thigh (FIG. 17). Before injection, mice were acclimatized to a 15 cm diameter cylindrical enclosure for more than 30 min with cage bedding on the ground. Background white noise generated by a radio in the room at ambient volume was applied to prevent auditory distraction. A 30 gauge needle was inserted bevel-up and pushed 5 mm horizontally into the skin beyond the point of insertion, before injection of the pruritogen (in a total volume of 10 μl). No anesthesia was used. Correct injection was confirmed by the appearance of a slightly domed bulla upon injection. […] Videos were analyzed off-line. Scratching of the hind paw directed to the ipsilateral cheek was counted in bouts, with one scratching bout defined as an instance when the mouse lifted its paw to scratch until it returned the paw to the cage floor. In case of experiments in which the pruritogen was injected in the skin of the thigh, the time spent biting the injected skin area was counted in s/min as a measure of itch.

Assay [2] concerns the target T1, α2GABAARs with H→R point mutation in the α2 subunit (Homo sapiens, UniProt P18507+P47869, H129R).
T1 construct: expressed in transfected cells; host or cells: HEK 293 cells, transient transfection
Nature of the assay: positive allosteric modulation of H→R point-mutated α2GABAARs in HEK 293 cells. The assay is classed as cell-based. As to conditions: 1 μM. The source says:
HEK293 cells were transfected using lipofectamine LTX (Dugue, G. P., et al. Neuron, 2009, 61, 126-139). To ensure expression of the γ2 subunit (required for modulation of GABAARs by BDZs) in all recorded cells, the inventors transfected cells with a plasmid expressing the γ2 subunit plus eGFP from an IRES, and only selected eGFP-positive cells for recordings. The transfection mixture contained (in μg): 1 α1, 1 β2, 3 γ2/eGFP (used as a marker of successful transfection) or 1 αx, 1 β3, 3 γ2/eGFP in case of α2, α3, or α5GABAARs. Recordings were made 18-36 hrs after transfection. Whole-cell patch-clamp recordings of GABA-evoked currents were made at room temperature (20-24° C.) and at a holding potential of −60 mV. Recording electrodes were filled with solution containing (in mM): 120 CsCl, 10 EGTA, 10 HEPES (pH 7.40), 4 MgCl2, 0.5 GTP and 2 ATP. The external solution contained (in mM): 150 NaCl, 10 KCl, 2.0 CaCl2, 1.0 MgCl2, 10 HEPES (pH 7.4), and 10 glucose. GABA was applied to the recorded cell using a manually controlled pulse (4-6 s) of a low sub-saturating GABA concentration (ECS). ECs values of GABA were determined for all subunit combinations analyzed. […] Imax was determined as the average maximal current elicited by a concentration of 1 mM GABA. […]

In assay [3] the test system is contact dermatitis-induced chronic itch. The experiment in a line: oxazolone contact dermatitis model of chronic itch in wild-type mice. The format is in vivo, wild-type C57BL6/J mice. The method, then: Thus, TPA023B is, in accordance with the other findings of the inventors, suitable as an antipruritic substance.
This was independent of the treatment they received from day 7 to day 27.
The inventors sought to confirm the antipruritic efficacy of α2 and α3 GABAA receptor agonists against contact dermatitis-induced chronic itch. To this end, N-desmethyl clobazam, a benzodiazepine with improved activity at α2 versus α1 was assessed for its antipruritic effects (Jensen et al. PLoS One. 2014 Feb. 12; 9(2):e88456.).
Chronic itch was investigated in the contact dermatitis model (Kido-Nakahara, M., et al. J Clin Invest, 2014, 124, 2683-2695). Mice were treated once with 10% oxazolone in acetone/olive oil (4:1 v/v) on the shaved nape of the neck (100 μl) on day 0. After a resting period of 7 days, mice were treated with 1% oxazolone in acetone/olive oil (4:1 v/v) on the nape of the neck (100 μl) every other day for 10 days. On the day of the experiment, mice were injected with drug or vehicle i.p. under short and light isoflurane anesthesia. […]

Assay [4] relates to α2GABAARs. The experiment in a line: chloroquine-induced biting (thigh injection) in hoxB8-α2−/−, α2fl/fl and α2 (H→R) mice. The assay is classed as in vivo. As to conditions: 1 mg/kg p.o., 100 μg chloroquine thigh. How it is done: as §1
The test system of assay [5] is GABA-IPSCs in GRP neurons. The experiment in a line: GABAergic IPSCs in GRP neurons, whole-cell recordings in spinal cord slices. As to conditions: 1 μM; n=7. The assay is classed as cell-based, GRP::eGFP mice. The method, then:
Transverse spinal cord slices ([…]) were prepared from 20 to 29-day old GRP::eGFP mice of either sex as described previously (Dugue, G. P., et al. Neuron, 2009, 61, 126-139). Whole-cell patch clamp recordings were made at room temperature targeting eGFP positive neurons. During recordings, slices were continuously superfused at the rate of 1-2 ml/min with aSCF containing (in mM): 120 NaCl, 2.5 KCl, 1.25 NaH2PO4, 26 […], 5 HEPES, 1 MgCl2, 2 CaCl2) and 14.6 glucose (pH 7.4), equilibrated with 95% O2, 5% CO2. Recorded neurons were voltage clamped at −70 mV using an EPC 9 amplifier (HEKA Elektronic, Lambrecht, Germany) controlled with Patchmaster acquisition software. […] IPSCs were evoked by electrical stimulation (300 μs, 0.2-50 V) at 0.05 Hz using glass electrode filled with aCSF and placed 50-100 μm from the soma of the recorded cell. […] At the end of the recordings bicuculline (10 μM) was added to confirm the GABAergic nature of the recorded IPCSs. The weighted decay time constant (τw) was calculated from dual-exponential fits using the following equation: Tw=(τ1A1+τ2A2)/(A1+A2) where τ1 and τ2 are the fast and the slow decay time constants and A1 and A2 are the equivalent amplitude weighting factors (Labrakakis, C., Lorenzo, L. E., Bories, C., Ribeiro-da-Silva, A. & De Koninck, Y Mol Pain, 2009, 5, 24). […]

T1 sequence (P47869 29-451 H129R): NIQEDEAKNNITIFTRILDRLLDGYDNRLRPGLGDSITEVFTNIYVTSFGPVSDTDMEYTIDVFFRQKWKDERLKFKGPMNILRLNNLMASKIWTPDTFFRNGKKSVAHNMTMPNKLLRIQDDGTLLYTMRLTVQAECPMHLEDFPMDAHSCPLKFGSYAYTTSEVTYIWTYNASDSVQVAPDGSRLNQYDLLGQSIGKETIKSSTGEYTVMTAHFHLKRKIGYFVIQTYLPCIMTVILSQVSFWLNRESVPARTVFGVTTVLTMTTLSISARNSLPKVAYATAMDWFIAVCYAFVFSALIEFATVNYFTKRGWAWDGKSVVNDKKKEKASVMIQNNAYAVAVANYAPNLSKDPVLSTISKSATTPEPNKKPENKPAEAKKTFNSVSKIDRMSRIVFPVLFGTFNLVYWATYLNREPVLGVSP
T1 sequence (P28472 26-473 partner): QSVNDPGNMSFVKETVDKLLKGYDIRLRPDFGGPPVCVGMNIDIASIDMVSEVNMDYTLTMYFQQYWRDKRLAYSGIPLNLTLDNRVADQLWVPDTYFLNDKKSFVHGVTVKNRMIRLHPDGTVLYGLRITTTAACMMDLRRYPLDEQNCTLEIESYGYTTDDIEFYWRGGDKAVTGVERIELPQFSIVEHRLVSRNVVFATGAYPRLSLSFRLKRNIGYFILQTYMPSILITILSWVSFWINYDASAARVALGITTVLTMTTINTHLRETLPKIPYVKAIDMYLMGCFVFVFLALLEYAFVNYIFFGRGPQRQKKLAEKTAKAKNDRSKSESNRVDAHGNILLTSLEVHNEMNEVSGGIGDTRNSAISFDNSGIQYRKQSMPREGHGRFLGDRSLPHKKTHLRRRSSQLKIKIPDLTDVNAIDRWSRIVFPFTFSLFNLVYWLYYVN
T1 sequence (P18507 40-467 limits assumed): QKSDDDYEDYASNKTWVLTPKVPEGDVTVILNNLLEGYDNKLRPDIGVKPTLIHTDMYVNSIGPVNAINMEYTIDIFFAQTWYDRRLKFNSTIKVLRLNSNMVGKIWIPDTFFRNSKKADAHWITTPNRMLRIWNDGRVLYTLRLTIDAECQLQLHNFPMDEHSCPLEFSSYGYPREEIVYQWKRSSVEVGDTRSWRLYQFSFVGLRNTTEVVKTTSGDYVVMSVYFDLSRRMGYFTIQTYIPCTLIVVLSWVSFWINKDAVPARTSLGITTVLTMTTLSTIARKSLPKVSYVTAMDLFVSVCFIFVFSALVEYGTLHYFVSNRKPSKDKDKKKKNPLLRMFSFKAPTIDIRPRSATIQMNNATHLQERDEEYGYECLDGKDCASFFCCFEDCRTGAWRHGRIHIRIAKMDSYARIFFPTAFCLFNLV

As for `CC(C)(O)c1cnn2c(-c3ccc(F)c(-c4c(F)cccc4C#N)c3)cnc2n1` [TPA023B, 6,2′-difluoro-5′-[3-(1-hydroxy-1-methylethyl)imidazo[1,2-b][1,2,4]triazin-7-yl]biphenyl-2-carbonitrile], the “antipruritic action in HRRR mice” value in assay [1] is reported as “completely lost its antipruritic action”. Moreover, the “positive allosteric modulation of H→R point-mutated α2GABAARs” value in assay [2] is on record as “abolished”. The “tolerance development to the antipruritic effects” value in assay [3] (1 mg/kg i.p. for nine consecutive days, d/d vs v/d) is “exclude tolerance development”. Besides, in assay [3] (1 mg/kg i.p. on day 18, 15 to 210 min after injection), the “scratching bouts directed at the nape of the neck vs vehicle” value is reported as “significant reduction in scratching bouts”. In addition, the “scratching bouts on day 28 vs vehicle, independent of pretreatment” value in assay [3] (1 mg/kg i.p. on day 28 after vehicle or 1 mg/kg once daily for nine consecutive days) was “significant reduction in scratching bouts”. In assay [4], the “biting responses, hoxB8-α2−/− mice vs global α2R/R mice” value is reported as “No significant difference”. For the same molecule, the “biting responses in treated mice compared between genotypes” value in assay [4] (hoxB8-α2−/−, α2fl/fl and α2 (H→R) mice) is “differed significantly between genotypes”. Besides, in assay [5], the “amplitude of GABA-IPSCs” value was “did not affect the amplitude” and the “prolongation of the decay of GABA-IPSCs” value was found to be 43±10%.

These data come from US11529359B2, “Use of GABAA receptor modulators for treatment of itch” (UNIVERSITÄT ZÜRICH, priority 2016, dated 2022).
